Assay results: patent US20150157588A1, “Pharmaceutical Composition Comprising Amino-Phenyl-Acetic Acid Octadec-(Z)-9-enyl Ester and Use Thereof for Treating Tumors” (Yeda Research and Development Co., Ltd., priority 2012, published 2015)

Key:
[1] = Light scattering at 90 degrees of aggregates in PBS with 0-20% ethanol; type: physicochemical; set-up: key to intensity of light scattering, relative scale: relative light-scattering intensity; 0% ethanol = 100; conditions: 10 μM in PBS; for intensity of light scattering, relative scale: 90 degrees, 560 nm
Experimental: Light scattering at 90 degrees can be used to assess the amount of aggregates in a solution. Higher readings are indicative of a higher degree of aggregation, while lower readings are indicative of disintegration of aggregates into monomers. A series of 10 μM amino-phenyl-acetic acid octadec-(Z)-9-enyl ester solutions was prepared in PBS containing ethanol concentrations of 0-20%. The intensity of light scattering of each solution was recorded at 90 degrees with a 560 nm beam in a Perkin Elmer fluorimeter. The results, presented in a relative scale with respect to the percent ethanol (% ethanol indicated in brackets), were as follows: 100 (0); 98 (0.5); 90 (1): 75 (2); 45(3); 26 (4); 10 (5); 8 (10); 6 (20).

[2] = tested on: p53 expressing L-12 mouse B cell line; test: Apoptosis by hypo-diploid nuclei PI staining, transformed B cell line; type: cell-based; conditions: 10 or 100 μg per ml in 5% ethanol solution, 48 h
Experimental: Apoptosis was measured by FACS analysis with a hypo-diploid nuclei propidium iodide (PI) staining of an amino-phenyl-acetic acid octadec-(Z)-9-enyl ester treated p53 expressing L-12 mouse B cell line. FIGS. 4A-4C: L-12 cells treated with 0, 10 or 100 μg/ml of amino-phenyl-acetic acid octadec-(Z)-9-enyl ester in ethanol solution, respectively; FIGS. 4D-4F: L-12 cells treated with 0, 10 or 100 μg/ml of the control reagent 4-methyl-piperazino-acetic acid ethyl ester in ethanol solution, respectively; and FIGS. 4G-4I: L-12 cells treated with an ethanol volume corresponding to 0, 10 or 100 μg/ml of amino-phenyl-acetic acid octadec-(Z)-9-enyl ester, respectively. FL2-A is the measure of fluorescence. […]
B or T-cell apoptosis was detected by flow cytometry. […] The cells were then subjected to flow cytometric analysis; for each sample 10,000 were collected and cell-cycle distribution was analyzed according to relative DNA content (PI staining). […] The cells were then collected, stained by APO-DIRECT TUNNEL kit (Phnxflow, CITY, Calif., USA); mitochondrial potential was measured by DePsipher (R&D Systems, Minneapolis, Minn.) according to the manufacturer's procedure. Intracellular caspase activity was measured by Apostat kit (R&D Systems), according to the manufacturer's procedure. The cells were analyzed by Flow cytometry using FACSort (Becton Dickinson) and CellQuest software (Becton Dickinson). […]

virulent 3LL clone, D122 = test: 3LL induced lung carcinoma, intravenous injection of D122 cells, deaths and lung weight; type: in vivo, mouse; conditions: for lung weight of the living mice: in mg (unit assumed); for number of dead mice: groups of 10, control seven
Experimental: 8-weeks old C57BL/6 male mice in groups of 10 were injected intravenously with 500,000 cells of a virulent 3LL clone, D122. Mice were treated daily for 35 days with either 5% ethanol in PBS (control); 100 μg amino-phenyl-acetic acid octadec-(Z)-9-enyl ester in 5% ethanol in PBS subcutaneously (SC); or 100 μg amino-phenyl-acetic acid octadec-(Z)-9-enyl ester in 5% ethanol in PBS intranasally (IN).
8-weeks old C57BL/6 male mice in groups of 10 were injected intravenously with 500,000 cells of a virulent 3LL clone, D122. Mice either left untreated, or were treated daily for 30 days with intranasal administration of either 5% ethanol in PBS (control); 100 μg of amino-phenyl-acetic acid octadec-(Z)-9-enyl ester in PBS; or 100 μg of amino-phenyl-acetic acid octadec-(Z)-9-enyl ester in 5% ethanol in PBS.
As shown in FIGS. 7A-7D, while treatment with amino-phenyl-acetic acid octadec-(Z)-9-enyl ester in PBS reduced the lung weight of the living mice from 718±351 in the control mice treated with 5% ethanol in PBS to 671±187 (FIGS. 7B-7C), treatment with amino-phenyl-acetic acid octadec-(Z)-9-enyl ester in ethanol solution reduced the lung weight of the living mice to 317±103 (FIG. 7D).

[3] = 100 μg in 5% ethanol in PBS intranasally daily for 35 days
[4] = 100 μg in 5% ethanol in PBS subcutaneously daily for 35 days

## CCCCCCCC/C=C\CCCCCCCCOC(=O)C(N)c1ccccc1 (centres unmarked) [amino-phenyl-acetic acid octadec-(Z)-9-enyl ester]
[1]
  ethanol concentration in whose presence micellar aggregates disintegrate: above 4 % ethanol
[1]; 0% ethanol
  intensity of light scattering, relative scale: 100
[1]; 0.5% ethanol
  intensity of light scattering, relative scale: 98
[1]; 1% ethanol
  intensity of light scattering, relative scale: 90
[1]; 2% ethanol
  intensity of light scattering, relative scale: 75
[1]; 3% ethanol
  intensity of light scattering, relative scale: 45
[1]; 4% ethanol
  intensity of light scattering, relative scale: 26
[1]; 5% ethanol
  intensity of light scattering, relative scale: 10
[1]; 10% ethanol
  intensity of light scattering, relative scale: 8
[1]; 20% ethanol
  intensity of light scattering, relative scale: 6
[2]
  apoptosis / cell cycle (cells in sub-GO state): induced massive apoptosis
Virulent 3LL clone, D122; 100 μg in 5% ethanol in PBS intranasally daily for 30 days
  lung weight of the living mice: 317±103
Virulent 3LL clone, D122; [3]
  number of dead mice: a single mouse
  lung weight of the living mice: 259±84
Virulent 3LL clone, D122; [4]
  number of dead mice: four
  lung weight of the living mice: 501±252
Virulent 3LL clone, D122; 100 μg in PBS intranasally daily for 30 days
  lung weight of the living mice: 671±187
